Assay results from patent publication US12043602B2, “Fendiline derivatives” (The Board of Regents of the University of Texas System, priority 2019, dated 2024).
Where two headings read alike, the source gives them in different places.

Legend:
[1] = tested on: KLE (WT) endometrial tumor cells; test: CyQUANT proliferation assay; assay type: cell-based; parameters: key: NE—Not efficacious; conditions: 72 h
Protocol: (§1) Madine Darby Canine Kidney epithelial cells (MDCK) stably co-expressing mGFP-tagged full length oncogenic mutant K-Ras (GFP—K-RASG12V) or mGFP-LactC2 (peptide probe for phosphatidylserine) and mCherry-tagged to the amino acids 179-189 of H-RasC181S, C184S (mCherry-CAAX, localizes primarily to endomembranes) were grown in DMEM-high glucose/sodium pyruvate/10% FBS. The medium was supplemented with 1× Penicillin/Streptomycin for fluorescence microscopy assays, to avoid any microbial contamination from the test compounds added. KLE and Hec50 cells were maintained in DMEM-F-12 medium supplemented with 10% FBS. Hec-1A and Hec-1B cells were grown in McCoy's 5a medium supplemented with 10% FBS. ESS-1 cells were grown in RPMI 1640 medium supplemented with 20% FBS. MPanc96 cells were grown in DMEM supplemented with 10% FBS, MiaPaCa-2 cells in DMEM supplemented with 10% FBS and 2.5% horse serum and all other cell lines were grown in RPMI 1640 supplemented with 10% FBS. All cancer cell media were supplemented with ×Penicillin/Streptomycin. All cell lines were grown at 37° C. with 5% CO2.
(§2) Cells were seeded in 96-well plates. After 24 h, fresh growth medium supplemented with 0.1% vehicle (DMSO), or various concentrations of drugs was added and cells were grown for 72 h. Cell numbers were quantified using the CyQUANT® Cell Proliferation Assay Kit (Molecular Probes, Life Technologies), according to the manufacturer's protocol. Fluorescence measurement was used as a measure of live cell number.

[2] = tested on: MDCK cells co-expressing GFP-K-RASG12V and mCherry-CAAX; test: Cytotoxicity in mislocalization screen (death of all cells in well); conditions: drug caused death of all cells in well at 30 μM
mGFP-K-RASG12V = mGFP-K-RASG12V (Homo sapiens (Human), UniProt P01116, G12V); test: K-Ras mislocalization assay (confocal microscopy, Manders coefficient); assay type: cell-based; parameters: key to Emax: Manders coefficient: fraction of mCherry-CAAX co-localizing with GFP-K-Ras; conditions: for IC50 / EC50 / Emax: MDCK cells; for IC50: 48 h treatment, read-out: IC50 (μM), KRASG12V mislocalization; for EC50: batch 4 compounds, title calls it IC50, read-out: EC50; for EC50 / Emax: 48 h; for Emax: maximal effect, Manders coefficient
Outline: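 Readout is the Manders coefficient: share of mCherry-CAAX overlapping mGFP-K-RASG12V in confocal images, proportional to K-Ras mislocalization. Stable MDCK co-expressing lines were exposed 48 h to various drug concentrations or 0.1% DMSO vehicle, then paraformaldehyde-fixed.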

MiaPaCa-2 tumors = test: In vivo tumor growth assay (xenograft); parameters: species or system nu/nu mice; conditions: MiaPaCa2 xenografts in nude mice
Protocol: In Vivo Tumor Growth Assay. All animal studies were performed under an Institutional Animal Care and Use Committee (IACUC) approved animal protocol (AWC-15-0101), in accordance with the National Institutes of Health Guide for the Care and Use of Laboratory Animals. Early passage MiaPaCa-2 cells were harvested, and 2×10^6 cells were implanted into the right flanks of female nu/nu mice. The animals were randomized into control and treated groups (10 mice per group). Tumor volume (V) was measured with an external caliper every 3-4 days and it was calculated as V=0.52 (length×width2). Compound treatment was initiated when the tumor sizes reached 100 mm3. Compounds (12.5 mg/kg) were injected daily intraperitoneally for 5 days, with 2 days of no treatment in between. All treatments were continued until any of the subcutaneous tumors reached 1500 mm3 in volume, when all the animals were sacrificed, and the tumors removed.
Early passage BxPC-3 or MIAPaCa-2 cells were harvested, and 2-3X106 cells were implanted into the right flanks of nu/nu mice. The animals were randomized into control and treated groups (10 mice per group). Tumor volume (V) was measured with an external caliper every 3-4 days and it was calculated as V=0.52 (length×width2). Drug treatment was initiated 4 days after tumor implantation. Drugs were injected daily intraperitoneally (at doses indicated) for 5 days, with 2 days of no treatment in between. All treatments were continued until any of the subcutaneous tumors reached 1500 mm3 in volume or for 6 weeks (whichever was first), when all the animals were sacrificed and the tumors removed.
Next the effect of the selected PMLIs on the growth of oncogenic KRAS expressing MiaPaCa-2 cells implanted subcutaneously into the flanks of nu/nu immunosuppressed mice was determined. […] The animals were randomized into control and PMLI-treated groups (10 mice per group). Treatment was initiated when the tumors reached a mean volume of 100 mm^3. PMLIs were tested at 12.5, 7.5, 5, 2.5 and 1 mg/kg doses, administered once daily intraperitoneally for 5 days, with 2 days of no treatment in between for the duration of the experiment. […] There was no observed toxicity detected in any of the compound-treated groups during the experiment and, accordingly, there was no significant difference in the body weight of the animals in the different groups.

[3] = tested on: MOH (Mut) pancreatic tumor cells; test: CyQUANT proliferation assay; assay type: cell-based; parameters: key to IC50 proliferation MOH (Mut): NE—Not efficacious; conditions: 72 h
Protocol: as §1, §2

[4] = tested on: MiaPaCa-2 (Mut) pancreatic tumor cells; test: CyQUANT proliferation assay; assay type: cell-based; parameters: key to IC50 proliferation MiaPaCa-2 (Mut): NE—Not efficacious; conditions: 72 h
Protocol: as §1, §2

[5] = tested on: MPanc96 (Mut) pancreatic tumor cells; test: CyQUANT proliferation assay; assay type: cell-based; parameters: key to IC50 proliferation MPanc96 (Mut): NE—Not efficacious; conditions: 72 h
Protocol: as §1, §2

[6] = tested on: BxPC-3 (WT) pancreatic tumor cells; test: CyQUANT proliferation assay; assay type: cell-based; parameters: key to IC50 proliferation BxPC-3 (WT): NE—Not efficacious; conditions: 72 h
Protocol: as §1, §2

[7] = tested on: ESS-1 (WT) endometrial tumor cells; test: CyQUANT proliferation assay; assay type: cell-based; parameters: key: NE—Not efficacious; conditions: 72 h
Protocol: as §1, §2

[8] = tested on: Ishikawa (WT) endometrial tumor cells; test: CyQUANT proliferation assay; assay type: cell-based; parameters: key to IC50 proliferation Ishikawa (WT): NE—Not efficacious; conditions: 72 h
Protocol: as §1, §2

[9] = tested on: NCI H522 (WT) lung tumor cells; test: CyQUANT proliferation assay; assay type: cell-based; parameters: key to IC50 proliferation NCI H522 (WT): NE—Not efficacious; conditions: 72 h
Protocol: as §1, §2

[10] = tested on: NCI H1975 (WT) lung tumor cells; test: CyQUANT proliferation assay; assay type: cell-based; parameters: key to IC50 proliferation NCI H1975 (WT): NE—Not efficacious; conditions: 72 h
Protocol: as §1, §2

IC50 (mGFP-K-RASG12V)	Emax (mGFP-K-RASG12V)	Compound	Cytotoxic at 30 μM [2]	further results
	0.808	C[C@H](c1ccc(F)cc1)N(CC=C(c1ccccc1)c1ccccc1)CCN1CCCC1 [NY0506, (R)-N-(1-(4-fluorophenyl)ethyl)-3,3-diphenyl-N-(2-(pyrrolidin-1-yl)ethyl)prop-2-en-1-amine]	Yes	minimum effective dose on tumor growth relative to fendiline (MiaPaCa-2 tumors): more potent than fendiline; EC50 (mGFP-K-RASG12V): 528 nM
0.29 µM	0.891	COc1ccc([C@@H](C)N(CC=C(c2ccccc2)c2ccccc2)C(=O)NC(C)(C)C)cc1 [NY0428, (R)-3-tert-butyl-1-(3,3-diphenylallyl)-1-(1-(4-methoxyphenyl)ethyl)urea]	No	IC50 proliferation MOH (Mut) [3]: NE; IC50 proliferation MiaPaCa-2 (Mut) [4]: NE; IC50 proliferation MPanc96 (Mut) [5]: NE
0.2 µM	0.835	C(CNC1(c2ccccc2)CC1)=C(c1ccccc1)c1ccccc1 [NY040402, N-(3,3-diphenylallyl)-1-phenylcyclopropanamine]	No	IC50 proliferation MOH (Mut) [3]: NE; IC50 proliferation MiaPaCa-2 (Mut) [4]: NE; IC50 proliferation BxPC-3 (WT) [6]: NE; IC50 proliferation MPanc96 (Mut) [5]: NE
0.91 µM		CN1CCN(CCN(CC=C(c2ccccc2)c2ccccc2)C2(c3ccccc3)CC2)CC1 [NY0443, N-(3,3-diphenylallyl)-N-(2-(4-methylpiperazin-1-yl)ethyl)-1-phenylcyclopropanamine]	Yes	IC50 proliferation ESS-1 (WT) [7]: NE; IC50 proliferation Ishikawa (WT) [8]: NE; IC50 proliferation NCI H522 (WT) [9]: NE; IC50 proliferation NCI H1975 (WT) [10]: NE
0.73 µM	0.732	C(CN(CCN1CCCC1)C1(c2ccccc2)CC1)=C(c1ccccc1)c1ccccc1 [NY0444, N-(3,3-diphenylallyl)-1-phenyl-N-(2-(pyrrolidin-1-yl)ethyl)cyclopropanamine]	Yes	IC50 proliferation ESS-1 (WT) [7]: NE; IC50 proliferation Ishikawa (WT) [8]: NE
0.05 µM	0.852	COc1ccc(-c2cc(C(=O)N(CCN3CCCC3)[C@H](C)c3ccc(F)cc3)no2)cc1 [PW323, (R)-N-(1-(4-Fluorophenyl)ethyl)-5-(4-methoxyphenyl)-N-(2-(pyrrolidin-1-yl)ethyl)isoxazole-3-carboxamide]	Yes	minimum effective dose on tumor growth relative to fendiline (MiaPaCa-2 tumors): more potent than fendiline
	0.725	C[C@@H](NCC(=O)N1c2ccccc2CCc2ccccc21)c1ccc(F)cc1 [NY0583, (R)-1-(10,11-dihydro-5H-dibenzo[b,f]azepin-5-yl)-2-((1-(4-fluorophenyl)ethyl)amino)ethan-1-one]	No	EC50 (mGFP-K-RASG12V): 3910 nM
2.82 µM	0.801	Brc1cccc(CN(CC=C(c2ccccc2)c2ccccc2)CCN2CCCC2)n1 [PW295, N-((6-bromopyridin-2-yl)methyl)-3,3-diphenyl-N-(2-(pyrrolidin-1-yl)ethyl)prop-2-en-1-amine]	Yes	
	0.414	C[C@H](c1ccc(F)cc1)N(CC=C(c1ccccc1)c1ccccc1)CCNc1cc(-c2ccc(F)cc2)n[nH]1 [PW2100, (R)-N^1-(3,3-diphenylallyl)-N^2-(3-(4-fluorophenyl)-1H-pyrazol-5-yl)-N^1-(1-(4-fluorophenyl)ethyl)ethane-1,2-diamine]	No	

Compound	IC50 (mGFP-K-RASG12V)	Emax (mGFP-K-RASG12V)	Cytotoxic at 30 μM [2]	further results
C[C@H](c1ccccc1)N(CC=C(c1ccccc1)c1ccccc1)CCN1CCN(C)CC1 [NY0513, (R)-N-(2-(4-methylpiperazin-1-yl)ethyl)-3,3-diphenyl-N-(1-phenylethyl)prop-2-en-1-amine]	0.6 µM	0.786	Yes	IC50 proliferation KLE (WT) [1]: NE; EC50 (mGFP-K-RASG12V): 639 nM; Emax (mGFP-K-RASG12V; listed as 15d): 0.79 ± 0.01
COc1ccccc1[C@@H](C)N(CC=C(c1ccccc1)c1ccccc1)CCN1CCN(C)CC1 [NY0366, (R)-N-(1-(2-methoxyphenyl)ethyl)-N-(2-(4-methylpiperazin-1-yl)ethyl)-3,3-diphenylprop-2-en-1-amine]	3.81 µM	0.861	Yes	IC50 (mGFP-K-RASG12V; listed as 15b): 3.8 µM; Emax (mGFP-K-RASG12V; listed as 15b): 0.86 ± 0.01
COc1ccc([C@@H](C)N(CC=C(c2ccccc2)c2ccccc2)CCN2CCNC(=O)C2)cc1 [NY325, (R)-4-(2-((3,3-diphenylallyl)(1-(4-methoxyphenyl)ethyl)amino)ethyl) piperazin-2-one]	7.7 µM	0.81 ± 0.02	No	fold potency loss compared to 12e (mGFP-K-RASG12V; versus 12e): 6 fold
COc1ccc([C@@H](C)N(CC=C(c2ccccc2)c2ccccc2)CCN2CCNCC2)cc1 [NY347, (R)-N-(1-(4-methoxyphenyl)ethyl)-3,3-diphenyl-N-(2-(piperazin-1-yl)ethyl)prop-2-en-1-amine]	1.3 µM	0.86 ± 0.02	Yes	Cytotoxic at 30 μM ([2]; listed as 12e): cytotoxicity; Emax (mGFP-K-RASG12V; listed as 12e): 0.90
C[C@H](c1cccc(Cl)c1)N(CC=C(c1ccccc1)c1ccccc1)CCN1CCN(C)CC1 [NY0370b, (R)-N-(1-(3-chlorophenyl)ethyl)-N-(2-(4-methylpiperazin-1-yl)ethyl)-3,3-diphenylprop-2-en-1-amine]	11.2 µM	0.767	Yes	Emax (mGFP-K-RASG12V; listed as 15g): 0.77 ± 0.07
